Experimental data published in patent US10618912B2, “Diaryl macrocycles as modulators of protein kinases” (Turning Point Therapeutics, Inc., priority 2014, dated 2020).
pIC50: −log10 of the molar value.

Legend:
[1] = test system: Ba/F3-EML4-ALK wild type cell line; experiment: EML4-ALK Ba/F3 cell proliferation assay; type: cell-based; settings: 48 hours incubation, read-out: EML4-ALK Ba/F3 cell proli. IC50
Description: The EML4-ALK wild-type gene (variant 1) was synthesized at GenScript and cloned into pCDH-CMV-MCS-EF1-Puro plasmid (System Biosciences, Inc). Ba/F3-EML4-ALK wild type cell line was generated by infecting Ba/F3 cells with lentivirus containing EML4-ALK wide-type. Stable cell lines were selected by puromycin treatment, followed by IL-3 withdrawal. 5000 cells were seeded in 384 well white plate overnight before compound treatment. Cell proliferation was measured using CellTiter-Glo luciferase-based ATP detection assay (Promega) following the manufactures's protocol after 48 hours of various concentration of compound incubation. IC50 determinations were performed using GraphPad Prism software (GraphPad, Inc., San Diego, Calif.).

KM12 cells = experiment: Caspase activity assay; type: cell-based; settings: 72 hours, caspase3 glo / PARP immunoblot
Description: KM12 cells were maintained in DMEM medium supplemented with 10% fetal bovine serum and antibiotics. 500,000 cells were seeded in 12-well plate and various concentration of compounds were introduced for 72 hours For staurosporine treatment, 500 nM of STS were added at time of 60 hours and incubation of 12 hours as a positive control. All the cells were collected and washed with 1×PBS twice and then lysed in a lysis buffer (20 mM HEPES, 150 mM NaCl, 10 mM KCl, 5 mM EDTA, 1% NP40) supplemented with Halt protease and phosphatase inhibitors (Thermo Scientific). For caspase assays, around 20 μL (20 μg) of cell lysate were incubated with 20 μL, of caspase3 glo reagent (Promega), measuring enzyme activity by the release of luminescence after 20 min incubation at 37° C. For western blotting, cell lysates were boiled and analyzed by SDS-PAGE/immunoblotting using PARP, or actin antibodies.

Row | Structure (SMILES) | pIC50 [1] | apoptosis of KM 12 cells (KM12 cells)
1 | C[C@@H]1CNC(=O)c2cnn3ccc(nc23)N[C@H](C)c2cc(F)ccc2O1 [Example 92, (7R,13R)-11-fluoro-7,13-dimethyl-6,7,13,14-tetrahydro-1,15-ethenopyrazolo[4,3-f][1,4,8,10]benzoxatriazacyclotridecin-4(5H)-one] | 7.10 | 
2 | C[C@H]1CNC(=O)c2cnn3ccc(nc23)N[C@H](C)c2cc(F)ccc2O1 [Example 93, (7S,13R)-11-fluoro-7,13-dimethyl-6,7,13,14-tetrahydro-1,15-ethenopyrazolo[4,3-f][1,4,8,10]benzoxatriazacyclotridecin-4(5H)-one] | 7.68 | 
3 | CN1Cc2cc(F)ccc2OCCNC(=O)c2cnn3ccc1nc23 [Example 20, 11-fluoro-14-methyl-6,7,13,14-tetrahydro-1,15-ethenopyrazolo[4,3-f][1,4,8,10]benzoxatriazacyclo-tridecin-4(5H)-one] |  | induced apoptosis
4 | C[C@H]1Nc2ccn3ncc(c3n2)C(=O)NCCOc2ccc(F)cc21 [Example 51-1, (13R)-11-fluoro-13-methyl-6,7,13,14-tetrahydro-1,15-ethenopyrazolo[4,3-f][1,4,8,10]benzoxatriazacyclotridecin-4(5H)-one] | 6.61 | 
